Measured values as given in PubChem BioAssay (NCI).
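Following 48 hours of exposure in 96-well plates, responses at five concentrations were used to interpolate endpoints linearly. TGI denotes the concentration required for complete inhibition of growth.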

Experiments:
Assay in all cases: DTP human tumour cell line panel, 48 h
SK-MEL-28 melanoma = tested on: SK-MEL-28 melanoma
OVCAR-4 ovarian = tested on: OVCAR-4 ovarian
NCI-H460 lung = tested on: NCI-H460 lung
SF-539 CNS = tested on: SF-539 CNS
UACC-257 melanoma = tested on: UACC-257 melanoma
SW-620 colon = tested on: SW-620 colon
KM12 colon = tested on: KM12 colon
OVCAR-8 ovarian = tested on: OVCAR-8 ovarian
SNB-75 CNS = tested on: SNB-75 CNS
RPMI-8226 leukemia = tested on: RPMI-8226 leukemia
786-0 renal = tested on: 786-0 renal
NCI-H23 lung = tested on: NCI-H23 lung
HS 578T breast = tested on: HS 578T breast
HOP-92 NSCLC = tested on: HOP-92 NSCLC
MDA-MB-435 = tested on: MDA-MB-435
NCI-H522 lung = tested on: NCI-H522 lung
UO-31 renal = tested on: UO-31 renal
BT-549 breast = tested on: BT-549 breast
SF-295 CNS = tested on: SF-295 CNS

| Structure (SMILES) | TGI (SK-MEL-28 melanoma) [µM] | TGI (OVCAR-4 ovarian) [µM] | TGI (NCI-H460 lung) [µM] | TGI (SF-539 CNS) [µM] | TGI (UACC-257 melanoma) [µM] | TGI (SW-620 colon) [µM] | TGI (KM12 colon) [µM] | TGI (OVCAR-8 ovarian) [µM] | TGI (SNB-75 CNS) [µM] | TGI (RPMI-8226 leukemia) [µM] | TGI (786-0 renal) [µM] | TGI (NCI-H23 lung) [µM] | TGI (HS 578T breast) [µM] | TGI (HOP-92 NSCLC) [µM] | TGI (MDA-MB-435) [µM] | TGI (NCI-H522 lung) [µM] | TGI (UO-31 renal) [µM] | TGI (BT-549 breast) [µM] | TGI (SF-295 CNS) [µM] |
| --- | --- | --- | --- | --- | --- | --- | --- | --- | --- | --- | --- | --- | --- | --- | --- | --- | --- | --- | --- |
| Oc1cc(O)c2ccc(-c3ccc(O)c(O)c3)[o+]c2c1 | > 100 | > 100 | > 100 | > 100 | > 100 | > 100 | > 100 | > 100 | > 100 | > 100 | > 100 | > 100 | > 100 | > 100 | > 100 | > 100 | > 100 | > 100 |  |
| CN(C)CCCC1c2ccccc2Oc2ccc(C(F)(F)F)cc21 (stereo unspecified) | 15.7 | 28.3 | 31.8 | 29.5 | 26.5 | 33.7 | 28.4 | 31.9 | 27.7 | 25.3 | 26.7 | 36.6 | 31.8 | 25.2 | 19.1 | 29.4 | 6.49 | 28.2 | 31.6 |
| CCc1c(CN)c(CC)c(CNC2=NCCN2)c(CC)c1CNC1=NCCN1 | > 100 | > 100 | > 100 | > 100 | > 100 | > 100 | > 100 | > 100 | > 100 | > 100 | > 100 | > 100 | > 100 | > 100 | > 100 | > 100 | > 100 | > 100 | > 100 |
| S=C(NNC1=NCCCCN1)Nc1ccc(Cl)cc1 | > 100 | > 100 | > 100 | 76.5 | 43.9 | > 100 | > 100 | > 100 | > 100 | > 100 | > 100 | > 100 | > 100 | > 100 | > 100 | 42.3 | 31.6 | > 100 | 57.5 |
| C=CCNC(=S)N=Nc1c(O)n(CN2CCOCC2)c2ccc([N+](=O)[O-])cc12 | > 100 | > 100 | > 100 | > 100 | > 100 | > 100 | > 100 | > 100 | 88.3 | > 100 | > 100 | > 100 | > 100 | 83.3 | > 100 | > 100 | > 100 | > 100 | > 100 |
| O=C(c1cc2ccccc2[nH]1)N1C2CCC1CN(CCOC(c1ccc(F)cc1)c1ccc(F)cc1)CC2 (stereo unspecified) | > 100 | > 100 | > 100 | > 100 | > 100 | > 100 | > 100 | > 100 | > 100 | > 100 | > 100 | > 100 | > 100 | > 100 | > 100 | > 100 |  | > 100 | > 100 |
| CC(=O)OC(CN1CCN(c2ccccn2)CC1)Cn1sc2nc(C)cc(C)c2c1=O (stereo unspecified) | 42.2 | 55.4 | 35.2 | 29.2 | 32 | > 100 | 49 | 73.9 | 32.8 | > 100 | 28.1 | 43 | 44.8 | > 100 | 34.5 | 22.7 | 30.2 | 33.2 | > 100 |
| FC(F)(F)c1ccc(Cc2nc3cc4ccccc4cc3[nH]2)cc1 | > 100 | > 100 | > 100 | > 100 | > 100 | > 100 | > 100 | > 100 | 36.1 | > 100 | > 100 | > 100 | > 100 | 47.8 | > 100 | > 100 | > 100 | > 100 | > 100 |
| Cc1c2ccnc(C(=O)NCCN(C)C)c2cc2c3cc(O)ccc3n(C)c12 | 2.14 | 2.22 | 1.39 | 1.3 | 4.74 | 4.36 | 5.41 | 4.06 | 2.19 | 1.14 | 3.37 | 1.7 | 4.03 | 3.59 | 1.54 | 1.02 | 4.11 | 10.7 | 3.37 |
| CN(C)CCNc1nc2ccccc2c2c1CCCC2 | 39.6 | > 100 | 31 | > 100 | 29.3 | 86 | 41.4 | > 100 | 56.3 | 46.7 | 34.2 | > 100 | > 100 | 58.3 | 36.1 | 33.1 | 27.5 | > 100 | 31.1 |
| N#Cc1cnc(-n2[nH]c3c(c2=O)CCCC3)[nH]c1=O | > 100 | > 100 | > 100 | > 100 | > 100 | > 100 | > 100 |  | 55.9 | > 100 | > 100 | > 100 | > 100 | > 100 | > 100 | > 100 | > 100 | > 100 | > 100 |
